Entries after “also recorded” stand apart in the source; their conditions may differ. Marks after values point to notes of the source that are not given here.
How the values were obtained:
[1] = test system: rats (NAcShell injection); assay: Porsolt swim test after injection of mAChR agonists and antagonists in the NAcShell; type: in vivo, rat; details: for Drug (sec), mean swimming time / Percent change of swimming time vs Ringer / Time diff (sec), drug vs Ringer: 600 sec swim test; for immobility in the swim test, effect in words: infusion into the NAcShell
Method: FIG. 3 is a graph illustrating swimming time following injections of cholinergic drugs in NAc (black bars), compared to Ringer (white bars). (A) Local injection of arecoline, a muscarinic agonist, decreased swim time; the animals quickly gave up (40 μg, −41%, n=8, t=3.53, p<0.01; and 80 μg, −66%, n=6, t=4.12, p<0.01). (B) Pirenzepine, an M1 antagonist, increased swimming escape attempts in the manner of an antidepressant, but note this is a local injection (17.5 μg, n=8, +39%, t=3.63, p<0.01; 35 μg, +40%, n=9, t=7.15, p<0.001). […] (D) Local gallamine, an M2 antagonist, decreased swim time (0.13 μg/side, −21%, n=7, t=3.72, p<0.01; 0.44 μg/side, −37%, n=8, t=2.95, p<0.05; 0.88 μg/side, −36%, n=7, t=4.64, p<0.01). Swimming time following Ringer is normalized to 100%, with each bar representing the mean of the normalized responses across subjects. Swimming time following a drug injection is expressed as a percentage of the swimming time following vehicle injection on a different day. Significant changes in the within-subject response to drug injections are indicated with asterisks (* p<0.05, ** p<0.01, *** p<0.001).
The Porsolt swim test is an animal model of depression widely used as a screen for drugs with potential antidepressant effects in humans and for elucidating the pharmacological mechanisms of action of antidepressant medications. For example, the following procedure may be used:
On the first day of this test (day 1), a rodent (typically a rat) is placed in a cylindrical water tank for 15 min. Then after 24 hours (day 2) and 48 hours (day 3), drug and Ringer are administered to the animal in counterbalanced order. Immediately following each injection, the animal is placed in the swim test for 10 min. The length of time it swims during the swim tests is recorded. “Swimming” is defined by escape behaviors (i.e. diving, rigorous paddling with all four legs, circling the tank, and clambering at the tank walls). ‘Immobility’ was scored as floating and treading water just enough to keep the nose above water. Typically, after the first swimming session, animals become behaviorally depressed as shown by swimming less on later test days (day 2 or 3). […] Antidepressants increase swimming without affecting locomotor activity, whereas non-antidepressant drugs such as certain psychostimulants may also decrease immobility, but also increase locomotor activity in the open field test. Therefore, to screen a potential antidepressant, the swim test is typically followed by test for hyperactivity in the open field.
Rats were placed in the 600 sec (10 min) swim test following injections of drugs in the NAcShell. When not swimming, rats floated or made minimal forepaw movements to keep their noses above water. Each rat received one drug counterbalanced with Ringer on a separate day. The shorter control swim times for the gallamine group, relative to groups that received other drugs, may have been due to a seasonal difference. Control injections, shown in the last line, were made 2 mm dorsal to the accumbens (Pirenzepine Ctrl). Asterisks indicate significant difference between drug and Ringer (* p<0.05; ** p<0.01; *** p<0.001).

[2] = test system: rats (NAcShell injection); assay: locomotor activity in a photocell cage after drug injection in the NAcShell; type: in vivo, rat; details: 10 min following injection in NAcShell; arecoline 40 μg, pirenzepine 35 μg, scopolamine 1 μg, gallamine 0.88 μg
Method: FIG. 4 is a graph illustrating the effects of cholinergic drugs on locomotor activity in a photocell cage. Activity in the 10 min following drug injection in the NAcShell (black bars) is expressed as a percentage of control injections normalized to 100% (white bars).
FIG. 4 illustrates the effects of cholinergic drugs on locomotor activity in a photocell cage. Activity in the 10 min following drug injection in the NAc (black bars) is expressed as a percentage of control injections normalized to 100% (white bars).

[3] = test system: NAcShell of rats (ICSS reward threshold); assay: discrete trial current-threshold intracranial self-stimulation (ICSS), drugs infused into NAcShell; type: in vivo, rat; details: for ICSS threshold change: vs baseline, N=2; for ICSS threshold, effect in words: infused into the NAcShell during the ICSS procedure
Source text: FIG. 2 is a graph illustrating the effect of antagonism of M1 mAChR and agonism of mAChR in the nucleus accumbens shell (NAcShell). The discrete trial current-threshold intracranial self-stimulation paradigm was used to assess the effect of cholinergic drugs infused directly into the NAcShell on reward, independent of performance. See below and Markou and Koob (Neuropsychopharmacology. 1991 January; 4(1):17-26) for detailed description of the paradigm. Thresholds measured in a rat vary little in the 4 pre-drug days (<7% of the mean or baseline). The non-selective mAChR agonist arecoline dose-dependently elevates threshold (0.01 M, +11%; 1.0 M, +57.5%, N=2). Pirenzepine dihydrochloride (Sigma-Aldrich, Saint Louis, Mo.), a selective M1 mAChR antagonist, dose-dependently lowers threshold (0.1 mM, −7%; 100 mM, […], N=2). The drugs were infused into the NAcShell at a steady rate by reversed microdialysis over the hour required to complete threshold testing.
Anhedonia may be assessed by applying the intracranial self-stimulation (ICSS) paradigm. The ICSS may be used to assess anhedonia, reward, hedonic capacity, and motivation in animals. In this paradigm, a rat performs an operant task (e.g. pressing a bar) to receive rewarding electrical stimulation through electrodes implanted into specific areas of the brain, including the lateral hypothalamus (LH), medial forebrain bundle (MFB), ventral tegmental area containing dopamine neurons (VTA), the nucleus accumbens shell or nucleus accumbens medial core, ventral pallidum, orbitofronal cortex (OPFC), medial frontal cortex (MPFC), cingulate cortex, lateral bed nucleus of the stria terminalis of the amygdala (BNST), mediodorsal thalamus (mdTham), lateral septum, the dorsal raphe containing serotonin neurons, the locus coeruleus containing norepinephrine neurons (see FIG. 1). As noted above, these regions supporting ICSS form an interconnected network commonly referred to as the “brain reward circuitry.”
A skilled artisan would recognize that variations of the ICSS paradigm may be used. For example, one of the most commonly used ICSS procedures, which has been experimentally validated and has shown to be reward-selective, is the discrete-trial current-intensity threshold procedure. This procedure directly and reliably assesses an animal's sensitivity to rewards, hedonic capacity, and motivation, independent of performance, i.e., ability to move (for detailed procedures see Markou and Koob, Neuropsychopharmacology. 1991 January; 4(1):17-26). The discrete trial current-intensity threshold ICSS procedure provides unique ways to investigate the anatomical and neurochemical basis of reward and motivation and is an important tool for assessing of the reward-facilitating or anhedonic effects of various drugs or medications.
Lowering of ICSS thresholds indicates facilitation of brain stimulation reward, whereas elevation in ICSS threshold indicates diminished reward value of the stimulation and thus an anhedonic state. Acute administration of most drugs of abuse, including cocaine, amphetamine, nicotine, morphine, and heroin, lower ICSS thresholds in experimental animals, logically because of their rewarding values. By contrast, withdrawal from chronic administration of these drugs elevates ICSS thresholds, indicating an anhedonic state that resembles the negative affective and motivational state of the drug withdrawal syndrome experienced by humans. Elevated ICSS threshold also occurs in animal models of depression. Such elevation in ICSS threshold reflects decreased sensitivity to rewarding stimuli, decreased hedonic capacity or motivation, and/or an aversive and dysphoric affective state of the animal model of depression. Importantly, administration of antidepressants normalizes or lowers ICSS threshold in such animals, indicating a reversal of reward and motivational deficits.
FIG. 2 is a graph illustrating the effect of antagonism of M1 mAChR and agonism of mAChR in the NAcShell. […]

[4] = test system: glutamatergic NMDA receptor in the NAc; assay: NMDA receptor antagonists injected into the NAc (Rada et al. 2003); type: in vivo; details: Applicant's data (Rada et al. 2003)
Source text: In the NAc, M2/M4 receptors are also located on glutamate-containing axonal terminals that originate from neurons located in corticolimbic and thalamic regions involved in depression and anxiety.

[5] = test system: extracellular ACh in NAcShell; assay: ACh efflux in NAcShell, infusion by reverse dialysis in freely moving rats; type: in vivo, rat; details: for extracellular ACh: 20 min infusion in NAcShell by reverse dialysis, oxotremorine 4 mM (hour following infusion), gallamine 1 mM, scopolamine 10 mM probe concentration; for duration of the ACh increase (until return to baseline): gallamine 1 mM: time following the infusion, scopolamine 10 mM; for ACh level in the NAc, effect in words: inventor's data (Chau et al. 2001)
Method: To determine if the M2 drugs act presynaptically on autoreceptors controlling ACh release, freely moving rats received infusions of an M2 agonist or antagonist in the NAcShell for 20 min by reverse dialysis while extracellular ACh was measured.
To determine if the M2 drugs act presynaptically on autoreceptors controlling ACh release, freely moving rats received infusions of an M2 agonist or antagonist in the NAc for 20 min by reverse dialysis while extracellular ACh was measured.

[6] = test system: patients with major depression and bipolar disorder; details: cited from earlier work
[7] = test system: NMDA receptor (depressed humans); details: human trials (Zarate et al. 2006); cited from earlier work
[8] = 17.5 μg/side, control injections 2 mm dorsal to the accumbens

COC(=O)C1=CCCN(C)C1 [Arecholine]
Drug (sec), mean swimming time ([1]; 40.0 μg/side in NAcShell): 235 ± 17** sec
Percent change of swimming time vs Ringer ([1]; 40.0 μg/side in NAcShell): −41%
Time diff (sec), drug vs Ringer ([1]; 40.0 μg/side in NAcShell): -162 s
Percent change of swimming time vs Ringer ([1]; 40.0 μg/side in NAcShell, listed as arecoline): −41%
Drug (sec), mean swimming time ([1]; 80.0 μg/side in NAcShell): 109 ± 34** sec
Percent change of swimming time vs Ringer ([1]; 80.0 μg/side in NAcShell): −66%
Time diff (sec), drug vs Ringer ([1]; 80.0 μg/side in NAcShell): -209 s
Percent change of swimming time vs Ringer ([1]; 80.0 μg/side in NAcShell, listed as arecoline): −66%
locomotor activity vs Ringer, in words [2]: significantly decreased
ICSS threshold change ([3]; arecoline 0.01 M infused into NAcShell by reversed microdialysis over 1 h): +11%
ICSS threshold change ([3]; arecoline 1.0 M infused into NAcShell by reversed microdialysis over 1 h): +57.5%
ICSS threshold, effect in words [3]: dose-dependently increases ICSS threshold

NC(CCCP(=O)(O)O)C(=O)O (centres unmarked) [AP-5]
effect on depression, in words [4]: alleviate depression

CC[N+](CC)(CC)CCOc1cccc(OCC[N+](CC)(CC)CC)c1OCC[N+](CC)(CC)CC [Gallamine]
Drug (sec), mean swimming time ([1]; 0.13 μg/side in NAcShell): 155 ± 26** sec
Percent change of swimming time vs Ringer ([1]; 0.13 μg/side in NAcShell): −21%
Time diff (sec), drug vs Ringer ([1]; 0.13 μg/side in NAcShell): -41 s
Percent change of swimming time vs Ringer ([1]; 0.13 μg/side in NAcShell, listed as gallamine): −21%
Drug (sec), mean swimming time ([1]; 0.44 μg/side in NAcShell): 148 ± 24* sec
Percent change of swimming time vs Ringer ([1]; 0.44 μg/side in NAcShell): −37%
Time diff (sec), drug vs Ringer ([1]; 0.44 μg/side in NAcShell): -88 s
Percent change of swimming time vs Ringer ([1]; 0.44 μg/side in NAcShell, listed as gallamine): −37%
locomotor activity vs Ringer, in words [2]: not significantly different from Ringer
extracellular ACh [5]: 437 % of baseline
duration of the ACh increase (until return to baseline) [5]: 20 min

CN1[C@@H]2C[C@@H](OC(=O)[C@H](CO)c3ccccc3)C[C@H]1[C@@H]1O[C@@H]12 [Scopolamine]
Drug (sec), mean swimming time ([1]; 0.5 μg/side in NAcShell): 306 ± 44 s
Percent change of swimming time vs Ringer ([1]; 0.5 μg/side in NAcShell): −12%
Time diff (sec), drug vs Ringer ([1]; 0.5 μg/side in NAcShell): -44 s
Percent change of swimming time vs Ringer ([1]; 0.5 μg/side in NAcShell, listed as scopolamine): N.S.
Drug (sec), mean swimming time ([1]; 1.0 μg/side in NAcShell): 541 ± 13*** sec
Percent change of swimming time vs Ringer ([1]; 1.0 μg/side in NAcShell): +50%
Time diff (sec), drug vs Ringer ([1]; 1.0 μg/side in NAcShell): +181 sec
Percent change of swimming time vs Ringer ([1]; 1.0 μg/side in NAcShell, listed as scopolamine): +50%
immobility in the swim test, effect in words [1]: decreases immobility
locomotor activity vs Ringer, in words [2]: not significantly different from Ringer; also recorded: without altering activity in the open field
extracellular ACh [5]: 220 % of baseline
duration of the ACh increase (until return to baseline) [5]: more than 100 min
ACh level in the NAc, effect in words [5]: elevates ACh level in the NAc
rate of remission in female patients ([6]; human trials): ≤ 71%
duration of antidepressant/anti-anxiety effects ([6]; one single dose): more than 17 days
time to reduction of depression and anxiety ([6]; one single dose, patients with major depression and bipolar disorder): 3 to 5 days

C[C@]12N[C@H](Cc3ccccc31)c1ccccc12 [dizocilpine]
effect on depression, in words [4]: alleviate depression

CNC1(c2ccccc2Cl)CCCCC1=O (centres unmarked) [ketamine]
antidepressant effect, in words [7]: rapid antidepressant effect

CN1CCN(CC(=O)N2c3ccccc3C(=O)Nc3cccnc32)CC1 [Pirenzepine]
Drug (sec), mean swimming time ([1]; 17.5 μg/side in NAcShell): 480 ± 38** sec
Time diff (sec), drug vs Ringer ([1]; 17.5 μg/side in NAcShell): +134 sec
Drug (sec), mean swimming time [1, 8]: 301 ± 34 s
Percent change of swimming time vs Ringer [1, 8]: −10%
Time diff (sec), drug vs Ringer [1, 8]: -36 s
Drug (sec), mean swimming time ([1]; 35.0 μg/side in NAcShell): 412 ± 26*** sec
Time diff (sec), drug vs Ringer ([1]; 35.0 μg/side in NAcShell): +117 sec
immobility in the swim test, effect in words [1]: decreases immobility
locomotor activity vs Ringer, in words [2]: not significantly different from Ringer; also recorded: without altering activity in the open field
ICSS threshold, effect in words [3]: dose-dependently lowers ICSS threshold
ICSS threshold change ([3]; pirenzepine 0.1 mM infused into NAcShell by reversed microdialysis over 1 h): −7%
ICSS threshold change ([3]; pirenzepine 100 mM infused into NAcShell by reversed microdialysis over 1 h): 14%

O=C1CCCN1CC#CCN1CCCC1 [oxotremorine]
extracellular ACh [5]: 55 % of baseline
ACh level in the NAc, effect in words [5]: decreasing ACh
